Earlier results in patent US9561285B2, “Carrier-linked carbamate prodrug linkers” (Ascendis Pharma AS, priority 2010, dated 2017).

Settings: buffer, pH 7

In the case of `O=C(Nc1ccccc1)Oc1ccc([N+](=O)[O-])cc1` [p-nitrophenyl-O—CO—NH-phenyl], the half-life of hydrolysis is given as 26 s.
